Experimental findings from article PMC12430362, “Comparative Study of Ni(II) Complexes with Dithiocarbazate- and Thiosemicarbazone-Based Ligands: Synthesis, Crystal Structures, and Anticancer Activity” (Molecules, 2025) are described below.

A value given as a limit tells only on which side of the number the result lay.

The IC50 is the concentration that gives 50% inhibition.

What all share (format): cell-based, human
Assay [1] has as its system cisplatin-resistant ovarian cancer (A2780cis) cell line. Kind of assay: MTT cytotoxicity assay, A2780cis. To be noted: 48 h, ± SD, 1.56-200 µM. The procedure: (§1) DMSO solutions (10^−3 M) of the complexes (1–4) were subjected to molar conductance measurements at room temperature over 48 h, and the observed values are presented in Table S8. […] A comparative cytotoxicity assay explored the differences between nickel(II) complexes derived from thiosemicarbazone and dithiocarbazate ligands. Additionally, we investigated the influence of the coligands triphenylphosphine and pyridine in the complexes. The effectiveness of the compounds in inhibiting cell viability was concentration- and time-dependent. The analysis involved varying concentrations between 1.56 and 200 µM over 48 h using an MTT assay, with untreated cells serving as the control. Table 5 presents the IC50 values for the free ligands, synthesized complexes, and cisplatin, which served as reference compounds in this study.
(§2) The cytotoxic activity of the synthesized compounds was evaluated against human cell lines, including breast cancer (MCF–7), cisplatin-resistant ovarian cancer (A2780cis), lung cancer (A549), and nontumor lung cells (MRC–5). The A549 and MRC-5 cell lines were cultured in Dulbecco’s Modified Eagle’s Medium (DMEM), while the MCF-7 and A2780cis cell lines were cultured in Roswell Park Memorial Institute (RPMI–1640). Both cultures were supplemented with 10% fetal bovine serum (FBS), penicillin (100 IU/mL), streptomycin ([…]), and L-glutamine (2 mM). The cells were grown as monolayers in disposable 25 cm^2 flasks and incubated at 37 °C in a humidified atmosphere containing 5% CO2.
(§3) The cytotoxicity activity of the compounds was assessed using a colorimetric MTT (3-(4,5-dimethylthiazol-2-yl)-2,5-diphenyltetrazolium bromide) assay. The cells were trypsinized, counted, and adjusted to the appropriate concentration and were seeded into 96-well plates at a density of 1.5 × 10^4 cells/well. […] The absorbance was measured at 570 nm using a Varioskan LUX Multimode Microplate Reader (VL000D0, Waltham, MA 02451, USA). […] The half-maximal inhibitory concentration (IC50) values were determined from dose–response curves using GraphPad Prism version 8 software.
(In general: Tetrazolium assays rely on reduction of a dye to a coloured formazan, in cell work by metabolically active cells.)

In assay [2] the test system is nontumoral lung (MRC-5) cell line. As to the kind of experiment: MTT cytotoxicity assay, MRC-5. As to conditions: ± SD, 1.56-200 µM, nontumoral cells. As for the experimental part:
as §1, §2, §3

For assay [3], the system named is lung cancer (A549) cell line. Kind of assay: MTT cytotoxicity assay, A549. As to conditions: ± SD, 1.56-200 µM. As for the experimental part: as §1, §2, §3
Assay [4] concerns breast cancer (MCF-7) cell line. Kind of assay: MTT cytotoxicity assay, MCF-7. As to conditions: ± SD, 1.56-200 µM. As for the experimental part:
as §1, §2, §3

In the case of `N.N.[Cl][Pt][Cl]` [Cisplatin, cisplatin, reference compound], the IC50 in assay [1] worked out at 37 µM; in assay [2] (48 h) it was 29.1 µM; in assay [3] (48 h), 11.5 µM; in assay [4] (48 h), 14 µM.

In the case of `O=C(C/C(=N/NC(=S)SCc1ccccc1)C(F)(F)F)c1cccs1` [H2L^2, thenoyltrifluoroacetone–S–benzyldithiocarbazate], the IC50 in assay [1] (Homo sapiens, A2780cis) was 78.9 µM; in assay [2] (Homo sapiens, MRC5, 48 h), more than 100 µM; in assay [3] (Homo sapiens, A549, 48 h), more than 100 µM; in assay [4] (Homo sapiens, MCF7, 48 h), more than 100 µM.

As for `O=C(C/C(=N/NC(=S)Nc1ccccc1)C(F)(F)F)c1cccs1` [H2L^1, thenoyltrifluoroacetone–4–phenyl–3–thiosemicarbazone], the IC50 in assay [1] (Homo sapiens, A2780cis) is 42.8 µM; in assay [2] (Homo sapiens, MRC5, 48 h), more than 100 µM; in assay [3] (Homo sapiens, A549, 48 h), 51.4 µM; in assay [4] (Homo sapiens, MCF7, 48 h), more than 100 µM.
